Publication PMC8338929, “Acetylation turns leucine into a drug by membrane transporter switching” (Scientific Reports, 2021)

What was measured:
human MCT1 (SLC16A1) = biological target: T1, human MCT1 (SLC16A1) (Homo sapiens, UniProt P53985); experiment: MCT1-mediated cellular uptake in transfected MDCK-II cells; assay type: cell-based; conditions: 1 min, room temperature, Michaelis-Menten fit
T1 construct: host or cells: MDCK-II
T1 sequence (P53985 1-500): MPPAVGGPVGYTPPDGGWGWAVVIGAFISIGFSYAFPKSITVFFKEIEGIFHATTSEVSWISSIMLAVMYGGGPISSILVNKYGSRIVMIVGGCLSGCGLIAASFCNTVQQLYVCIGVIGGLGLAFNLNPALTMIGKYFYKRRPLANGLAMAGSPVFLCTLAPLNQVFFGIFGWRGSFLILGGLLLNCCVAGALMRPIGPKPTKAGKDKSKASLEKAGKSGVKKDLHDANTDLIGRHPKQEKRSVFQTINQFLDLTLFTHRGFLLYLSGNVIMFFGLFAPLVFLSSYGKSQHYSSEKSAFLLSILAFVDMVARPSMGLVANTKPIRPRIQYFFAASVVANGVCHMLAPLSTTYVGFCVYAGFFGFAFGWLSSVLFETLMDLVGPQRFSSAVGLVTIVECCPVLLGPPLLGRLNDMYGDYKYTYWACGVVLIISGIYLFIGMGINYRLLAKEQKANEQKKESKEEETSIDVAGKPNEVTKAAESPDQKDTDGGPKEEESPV
Protocol: (§1) Transport studies with human PepT1 (SLC15A1), LAT1 (SLC7A5) and MCT1 (SLC16A1) were conducted in MDCK-II cells expressing the human transporter or control cells expressing a vector with Green Fluorescence Protein. Cells were transfected using a proprietary, transient transfection system (OPTI-EXPRESSION Technology, BioIVT). The results from the control cells were used to correct for substrate permeation by routes other than the transporter being investigated in the study. […] Specifically, Net Transporter Mediated Substrate Uptake (pmol/min/cm^2) = (Cellular accumulation in the presence of the transporter) − (Mean cellular accumulation in the absence of the transporter). MDCK-II cells were maintained in DMEM with low glucose and 10% FBS. Cells were used at passages up to 40 were seeded at 60,000 ± 10,000 cells/well on 96-well plates approximately 24 h before transfection, and transport assays were performed approximately 48 h after transfection. Transport studies in MDCK-II cells were conducted in 96-well insert plates with permeable membrane (0.4 µm) and receiver tray (Millipore MultiScreen Filter 96-well).
Transport studies with PepT1 were conducted in 96-well cell culture plate with wells containing a monolayer of MDCK-II cells grown on a permeable support and a corresponding 96-well receiver tray. Cell plates are maintained at 37 °C in 5% CO2 atmosphere prior to initiation of the transport experiment. Pre-incubation was conducted in HBSS, pH 7.4. The transport experiments were conducted in HBSS with Bis–Tris, pH 5.5, without phenol red. Both pre-incubation and incubation were conducted at 37 °C. All final assay solutions of probe substrate, reference inhibitor or test article contain 0.5% (v/v) DMSO (vehicle control). The culture plate insert […] was washed with warm HBSS three times and then blotted dry. The culture plate wells […] were washed with warm HBSS three times. […] Then a 30-µL sample was taken and mixed with 200 µL of scintillation fluid and scintillation counted (1450 Microbeta, Perkin-Elmer). […]

human LAT1 (SLC7A5) = biological target: T2, human LAT1 (SLC7A5) (Homo sapiens, UniProt Q01650); experiment: LAT1-mediated cellular uptake in transfected MDCK-II cells; assay type: cell-based; conditions: HBSS pH 7.4, 3 min, 37 °C
T2 construct: host or cells: MDCK-II
Protocol: as §1, with “Transport studies in MDCK-II cells were conducted in 96-well insert plates with permeable membrane (0.4 µm) and receiver tray (Millipore MultiScreen Filter 96-well).” left out
Transport studies with PepT1 were conducted in 96-well cell culture plate with wells containing a monolayer of MDCK-II cells grown on a permeable support and a corresponding 96-well receiver tray. […] Then a 30-µL sample was taken and mixed with 200 µL of scintillation fluid and scintillation counted (1450 Microbeta, Perkin-Elmer). […]

T2 sequence (Q01650 whole entry): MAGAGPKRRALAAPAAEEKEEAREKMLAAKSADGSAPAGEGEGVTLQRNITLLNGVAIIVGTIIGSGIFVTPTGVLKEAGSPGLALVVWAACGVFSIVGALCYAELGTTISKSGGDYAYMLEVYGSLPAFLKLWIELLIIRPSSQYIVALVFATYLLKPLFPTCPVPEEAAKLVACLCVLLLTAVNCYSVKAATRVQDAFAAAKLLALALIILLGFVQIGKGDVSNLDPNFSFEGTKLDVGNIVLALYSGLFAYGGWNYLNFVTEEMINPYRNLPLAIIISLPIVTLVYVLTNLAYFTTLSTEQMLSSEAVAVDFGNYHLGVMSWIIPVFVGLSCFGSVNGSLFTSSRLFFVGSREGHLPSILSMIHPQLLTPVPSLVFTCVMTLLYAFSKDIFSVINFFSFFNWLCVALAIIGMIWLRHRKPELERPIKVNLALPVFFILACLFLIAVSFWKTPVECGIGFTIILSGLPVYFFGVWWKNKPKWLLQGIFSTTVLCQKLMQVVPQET
T2 sequence (P08195 102-630 partner): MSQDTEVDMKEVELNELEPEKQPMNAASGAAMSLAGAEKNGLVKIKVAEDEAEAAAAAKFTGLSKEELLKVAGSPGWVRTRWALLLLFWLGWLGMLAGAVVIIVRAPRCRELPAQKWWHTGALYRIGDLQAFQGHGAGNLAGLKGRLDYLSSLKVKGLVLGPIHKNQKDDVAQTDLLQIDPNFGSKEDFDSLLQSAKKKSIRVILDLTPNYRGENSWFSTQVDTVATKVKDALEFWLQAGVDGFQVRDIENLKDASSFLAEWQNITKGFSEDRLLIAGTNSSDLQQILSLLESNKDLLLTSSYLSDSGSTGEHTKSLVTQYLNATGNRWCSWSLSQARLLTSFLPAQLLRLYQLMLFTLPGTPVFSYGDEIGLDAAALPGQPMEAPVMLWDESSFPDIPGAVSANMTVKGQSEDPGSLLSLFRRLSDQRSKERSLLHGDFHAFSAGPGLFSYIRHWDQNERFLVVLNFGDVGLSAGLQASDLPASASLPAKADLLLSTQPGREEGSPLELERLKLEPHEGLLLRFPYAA

Vmax MCT1 uptake (human MCT1 (SLC16A1)): 224
substrate of LAT1 (uptake) (human LAT1 (SLC7A5)): not transported
substrate of LAT1 (uptake) (human LAT1 (SLC7A5); listed as N-acetyl-leucine): not a substrate
SMILES: CC(=O)N[C@@H](CC(C)C)C(=O)O [N-acetyl-L-leucine]
